Laboratory results taken from patent publication US9732386B2, “Cell aging as a unique biomarker of major depression” (THE REGENTS OF THE UNIVERSITY OF CALIFORNIA, priority 2010, dated 2017).

Tested on: subjects with Major Depressive Disorder
Experiment: Hamilton Depression Rating Scale (HDRS) ratings over 8 weeks of open-label sertraline treatment
Type: in vivo, human

CN[C@H]1CC[C@@H](c2ccc(Cl)c(Cl)c2)c2ccccc21 [sertraline]
HDRS ratings, Mean±SD (Week 8 of sertraline treatment, 50 to max 200 mg per day, 16 depressed subjects, Baseline 18.50±3.65, paired t=5.67, p<0.000): 10.19±4.62
range of changes in HDRS ratings (over the 8-week course of sertraline treatment, individual subjects): 27% worsening to 82% improvement
mean improvement in HDRS ratings (over the 8-week course of sertraline treatment, relative to baseline): 42.3±31%
